Here are results for four molecules from ChEMBL document CHEMBL1127141, “Monocyclic -lactam inhibitors of human leukocyte elastase. Stereospecific synthesis and activity of 3,4-disubstituted-2-azetidinones” (Bioorg Med Chem Lett, 1993).

For test [1], the target named is T1, Neutrophil elastase (Homo sapiens) (UniProt P08246).
T1 sequence (whole entry): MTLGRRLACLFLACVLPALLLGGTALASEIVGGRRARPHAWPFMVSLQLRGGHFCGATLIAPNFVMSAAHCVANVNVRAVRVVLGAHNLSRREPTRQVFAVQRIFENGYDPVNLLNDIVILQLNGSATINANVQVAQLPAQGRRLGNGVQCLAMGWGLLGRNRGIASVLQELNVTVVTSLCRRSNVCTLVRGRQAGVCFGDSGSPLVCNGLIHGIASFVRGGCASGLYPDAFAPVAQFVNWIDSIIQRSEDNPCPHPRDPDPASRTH
Kind of test: Compound was evaluated for the inhibitory activity against Human leukocyte elastase.

The next test concerns the target T2, Neutrophil elastase (Homo sapiens, UniProt P08246).
T2 sequence (P08246 whole entry): T1 sequence (whole entry)
Description: Compound was evaluated for the inhibitory activity against Human leukocyte elastase; […].

In test [1], `CCC1C(=O)N(C(=O)NCc2ccccc2)C1Oc1ccc(C(=O)O)cc1` (trans isomer) showed a K obs / 1 of 2480 M⁻¹ s⁻¹.
The same measure, in the same setting: the value for `CC[C@@H]1C(=O)N(C(=O)NCc2ccccc2)[C@@H]1Oc1ccc(C(=O)O)cc1` was 383 M⁻¹ s⁻¹.
The same measure, in the same setting: the same measure for `CC[C@@H]1C(=O)N(C(=O)NCc2ccccc2)[C@H]1Oc1ccc(C(=O)O)cc1`: 424 M⁻¹ s⁻¹.
Consider `CC[C@H]1C(=O)N(C(=O)NCc2ccccc2)[C@H]1Oc1ccc(C(=O)O)cc1`, for which the Ki at Neutrophil elastase turned out to be 5.6 µM.
